This data set addresses DGAT2. To be noted: ASO.

“And” between values parts separate entries of the source, which are not always exact repeats. Identical values can stand only once. After the bases stand the sugars from the 5' end (letter, count) and the backbone: PS all phosphorothioate, else s phosphorothioate and o phosphodiester by linkage. Methylation of C is not given here. e = 2'-O-(2-methoxyethyl) (MOE); d = 2'-deoxy (DNA)

As for “CGCGATTCACTGAGGACCTC (sugars e5 d10 e5, PS)”, the target mRNA inhibition was 73% and 74% (HepG2, 2.5 µM); 83% and 93% (HepG2, 10 µM).
On to “CTAAGCTTATTAGGTGTCTT (sugars e5 d10 e5, PS)”, for which the target mRNA inhibition runs as follows: (HepG2, 2.5 µM) 68%; (HepG2, 10 µM) 81%.
The like results for “CTCACCCCTGTACTCAGCCC (sugars e5 d10 e5, PS)” were, in that order, 72% and 88%.
For “CTCAGAGACTCAGCCGCACC (sugars e3 d14 e3, PS)”, the target mRNA inhibition (HepG2, 0.12 µM) amounted to 70%.
“CTCAGTCACTGACTCACAAC (sugars e5 d10 e5, PS)” gave a target mRNA inhibition (HepG2, 2.5 µM) of 54% and a target mRNA inhibition (HepG2, 10 µM) of 88%.
The like results for “CTCCCACCTGAGTGCTGCAA (sugars e5 d10 e5, PS)” were, in that order, 74% and 90%.
Turning to “CTCTGCTTCTTGGGCATCTG (sugars e5 d10 e5, PS)”, the target mRNA inhibition reads like this: (HepG2, 2.5 µM) 78% and 70%; (HepG2, 10 µM) 90% and 85%.
The sequence “CTGACCTCAGGGTGATCAAG (sugars e5 d10 e5, PS)” showed a target mRNA inhibition (HepG2, 0.12 µM) of 31%.
“CTGCTTCTTGGGCATCTGCT (sugars e5 d10 e5, PS)”: the target mRNA inhibition is 76% and 73% (HepG2, 2.5 µM); 88% and 80% (HepG2, 10 µM).
“CTGGACCCATCGGCCCCAGG (sugars e5 d10 e5, PS)” yielded a target mRNA inhibition (HepG2, 0.12 µM) of 41%.
With “CTTAAGGCAAAGTAACATAC (sugars e5 d10 e5, PS)”, the target mRNA inhibition is, setting by setting: (HepG2, 2.5 µM) 48% and 57%; (HepG2, 10 µM) 75% and 96%.
In the case of “CTTAGGCATGCTTCCTCCCA (sugars e5 d10 e5, PS)”, the target mRNA inhibition came out at 57% (HepG2, 2.5 µM) and 84% (HepG2, 10 µM).
Regarding “CTTCTTAAAAAAGACCTAAC (sugars e5 d10 e5, PS)”, for the setting “HepG2, 0.12 µM”, the target mRNA inhibition amounted to 26%.
“CTTTGGATAGTCGATTTACC (sugars e5 d10 e5, PS)”: the target mRNA inhibition reads like this: (HepG2, 2.5 µM) 59%; (HepG2, 10 µM) 88%.
“CTTTTAAATAACCCACAGAC (sugars e5 d10 e5, PS)”: the target mRNA inhibition (HepG2, 0.12 µM) came to 0%.
“GAAAGTAGTCTCGAAAGTAG (sugars e5 d10 e5, PS)” returned a target mRNA inhibition (HepG2, 0.12 µM) of 0%.
As to “GAATGCACTGAGTTTCTGCT (sugars e5 d10 e5, PS)”, the target mRNA inhibition is, setting by setting: (HepG2, 2.5 µM) 73% and 63%; (HepG2, 10 µM) 92% and 87%.
Consider “GACAATGAGTAAGGGTATTC (sugars e5 d10 e5, PS)”, for which the target mRNA inhibition was determined as 48% (HepG2, 2.5 µM) and 83% (HepG2, 10 µM).
For the sequence “GACAGGACCCACTGGAGCAC (sugars e5 d10 e5, PS)”, the target mRNA inhibition (HepG2, 0.12 µM) is 44% and 69%.
On to “GACCTTGGGCAAGTTACCTA (sugars e5 d10 e5, PS)”, for which the target mRNA inhibition reads like this: (HepG2, 2.5 µM) 50% and 71%; (HepG2, 10 µM) 89% and 94%.
Turning to “GAGATGACCTGTAGCTGCTT (sugars e5 d10 e5, PS)”, the target mRNA inhibition (HepG2, 0.12 µM) stood at 34%.
On to “GAGCTCAGAGACTCAGCCGC (sugars e5 d10 e5, PS)”, for which the target mRNA inhibition (HepG2, 0.12 µM) was determined as 81%.
For “GAGCTTCACCAGGGCCTCCA (sugars e5 d10 e5, PS)”, the target mRNA inhibition is 52% (HepG2, 0.12 µM); 74% and 79% (HepG2, 10 µM); 83% and 88% (HepG2, 20 µM).
In the case of “GAGGCCAAGGACAGAGGTTC (sugars e5 d10 e5, PS)”, the target mRNA inhibition was found to be 66% (HepG2, 2.5 µM) and 81% (HepG2, 10 µM).
Consider “GATAGCATTGCCACTCCCAT (sugars e3 d14 e3, PS)”, for which, for the setting “HepG2, 0.12 µM”, the target mRNA inhibition was determined as 75%.
The same measure, in the same setting: the figure for “GATAGCATTGCCACTCCCAT (sugars e5 d10 e5, PS)” is 66%.
Sequence “GATCTCAGTCACTGACTCAC (sugars e5 d10 e5, PS)” displayed a target mRNA inhibition (HepG2, 2.5 µM) of 57% and a target mRNA inhibition (HepG2, 10 µM) of 91%.
As to “GATGCTGGATCCAGTGCCTA (sugars e5 d10 e5, PS)”, the target mRNA inhibition (HepG2, 0.12 µM) was 53%.
Still for that read-out and setting: the figure for “GATGGCAACCTAAGGAGTGA (sugars e5 d10 e5, PS)” is 37%.
On to “GCAATGCCAATGCCTAGGTC (sugars e5 d10 e5, PS)”, for which the target mRNA inhibition (HepG2, 2.5 µM) is 87% and 89%; the target mRNA inhibition (HepG2, 10 µM) was 82% and 91%.
Turning to “GCACCTGTTACTACATGTCT (sugars e5 d10 e5, PS)”, the target mRNA inhibition runs as follows: (HepG2, 2.5 µM) 87% and 78%; (HepG2, 10 µM) 92% and 84%.
For “GCACTCTCTCTGCACACTCC (sugars e5 d10 e5, PS)”, the target mRNA inhibition by setting is: (HepG2, 2.5 µM) 61%; (HepG2, 10 µM) 87%.
As for “GCACTTGATCTGGGACCCAA (sugars e5 d10 e5, PS)”, the target mRNA inhibition by setting is: (HepG2, 2.5 µM) 69% and 73%; (HepG2, 10 µM) 95% and 92%.
For the sequence “GCAGATCTTCATTACATGAT (sugars e5 d10 e5, PS)”, for the setting “HepG2, 10 µM”, the target mRNA inhibition was 86% and 91%.
The sequence “GCAGGACCCCGGAGTAGGCG (sugars e2 d13 e5, PS)” displayed a target mRNA inhibition (HepG2, 0.12 µM) of 68%.
Same read-out and setting: the figure for “GCAGGACCCCGGAGTAGGCG (sugars e5 d10 e5, PS)” is 58%.
Turning to “GCAGGGTTACCCAGCCACTG (sugars e5 d10 e5, PS)”, the target mRNA inhibition (HepG2, 2.5 µM) was 85% and 67%; the target mRNA inhibition (HepG2, 10 µM) is 75% and 88%.
Sequence “GCAGGTTCATCTGCCTT (sugars e3 d10 e4, PS)” had a target mRNA inhibition (HepG2, 2.5 µM) of 54% and a target mRNA inhibition (HepG2, 10 µM) of 82%.
The like results for “GCAGTCTGCCTGATTCCCTT (sugars e5 d10 e5, PS)” were, in that order, 60% and 93%.
The like results for “GCATAGCTGAGCAAATCCAT (sugars e5 d10 e5, PS)” were, in that order, 69% and 85%.
The like results for “GCATGCTTCCTCCCACTTCA (sugars e5 d10 e5, PS)” were, in that order, 84% and 76%.
For “GCCAATGCCTAGGTCAC (sugars e3 d10 e4, PS)”, the target mRNA inhibition by setting is: (HepG2, 2.5 µM) 85% and 93%; (HepG2, 10 µM) 79% and 93%.
“GCCACTCCCAGTACAAGGAA (sugars e5 d10 e5, PS)” registered a target mRNA inhibition (HepG2, 0.12 µM) of 0%.
For the setting “HepG2, 0.12 µM”, “GCCAGGTAAGGCCGTATGCC (sugars e3 d14 e3, PS)” came in with a target mRNA inhibition of 61%.
Take “GCCAGGTGCTCTCATTTCTT (sugars e5 d10 e5, PS)”: the target mRNA inhibition is, setting by setting: (HepG2, 2.5 µM) 63%; (HepG2, 10 µM) 91%.
The like results for “GCGATTCACTGAGGACCTCA (sugars e5 d10 e5, PS)” were, in that order, 74% and 86%.
Regarding “GCGCCACACAGCCCAGTTTC (sugars e5 d10 e5, PS)”, under “HepG2, 0.12 µM”, the target mRNA inhibition is 31%.
“GCGCGATTCACTGAGGACCT (sugars e5 d10 e5, PS)”: the target mRNA inhibition (HepG2, 2.5 µM) worked out at 75% and the target mRNA inhibition (HepG2, 10 µM) is 76%.
“GCTCACTTCTGTGGCCTCTG (sugars e5 d10 e5, PS)”: the target mRNA inhibition (HepG2, 0.12 µM) was found to be 41%.
Regarding “GCTCAGCACTGACATGGTAA (sugars e5 d10 e5, PS)”, the target mRNA inhibition by setting is: (HepG2, 2.5 µM) 79% and 66%; (HepG2, 10 µM) 96% and 92%.
On to “GCTCTCATTTCTTATCTTCA (sugars e5 d10 e5, PS)”, for which the target mRNA inhibition reads like this: (HepG2, 2.5 µM) 82% and 80%; (HepG2, 10 µM) 95% and 93%.
Take “GCTGGTGTTCTACAAGCTGC (sugars e5 d10 e5, PS)”: the target mRNA inhibition (HepG2, 2.5 µM) was 79% and 81% and 83%; the target mRNA inhibition (HepG2, 10 µM) is 90% and 86% and 88%.
In turn, “GCTTCACCAGGGCCTCCATG (sugars e5 d10 e5, PS)” returned a target mRNA inhibition (HepG2, 0.12 µM) of 31%; a target mRNA inhibition (HepG2, 2.5 µM) of 34%; a target mRNA inhibition (HepG2, 10 µM) of 57%; a target mRNA inhibition (HepG2, 20 µM) of 80%.
In the case of “GCTTGGAGTAGGGCACCAGC (sugars e5 d10 e5, PS)”, the target mRNA inhibition (HepG2, 0.12 µM) was determined as 45%.
The same measure, in the same setting: the figure for “GGACAGGAGGGTCACACACA (sugars e5 d10 e5, PS)” is 45%.
Regarding “GGACCCACTGGAGCACTGAG (sugars e5 d10 e5, PS)”, the target mRNA inhibition by setting is: (HepG2, 0.12 µM) 84%; (HepG2, 2.5 µM) 14%; (HepG2, 10 µM) 47%; (HepG2, 20 µM) 73%.
For the sequence “GGAGCAGGCCTCGGGAAGCA (sugars e5 d10 e5, PS)”, the target mRNA inhibition amounted to 38% (HepG2, 2.5 µM) and 85% (HepG2, 10 µM).
Sequence “GGAGCTCAGAGACTCAGCCG (sugars e2 d13 e5, PS)” came in with a target mRNA inhibition (HepG2, 0.12 µM) of 65%.
Under “HepG2, 0.12 µM”, “GGAGTAGGGCACCAGCCCCC (sugars e5 d10 e5, PS)” had a target mRNA inhibition of 17%.
As to “GGATACTCAGAAGAGCAGTG (sugars e5 d10 e5, PS)”, the target mRNA inhibition is, setting by setting: (HepG2, 2.5 µM) 60%; (HepG2, 10 µM) 80%.
“GGATAGTCGATTTACCAGAA (sugars e5 d10 e5, PS)” showed a target mRNA inhibition (HepG2, 2.5 µM) of 69% and a target mRNA inhibition (HepG2, 10 µM) of 85%.
For “GGCAAAGTAACATACCTGCT (sugars e5 d10 e5, PS)”, the target mRNA inhibition by setting is: (HepG2, 2.5 µM) 72% and 91%; (HepG2, 10 µM) 94%.
Take “GGCACAGAAAAGTGAGGCTT (sugars e5 d10 e5, PS)”: the target mRNA inhibition (HepG2, 0.12 µM) was 32%.
Regarding “GGCACCTGTTACTACATGTC (sugars e5 d10 e5, PS)”, the target mRNA inhibition was 80% and 75% (HepG2, 2.5 µM); 94% and 89% (HepG2, 10 µM).
As to “GGCAGATCTTCATTACATGA (sugars e5 d10 e5, PS)”, the target mRNA inhibition (HepG2, 2.5 µM) is 75% and 70%; the target mRNA inhibition (HepG2, 10 µM) is 80% and 78%.
With “GGCATGCTTCCTCCCAC (sugars e3 d10 e4, PS)”, the target mRNA inhibition is, setting by setting: (HepG2, 2.5 µM) 56%; (HepG2, 10 µM) 56%.
“GGCATGGAGCTCAGAGACTC (sugars e3 d14 e3, PS)”: the target mRNA inhibition (HepG2, 0.12 µM) was determined as 74%.
With “GGGAAAGGTCTTCTCCAGCT (sugars e5 d10 e5, PS)”, the target mRNA inhibition was 86% and 85% (HepG2, 2.5 µM); 92% and 91% (HepG2, 10 µM).
Regarding “GGGACTCAGTGTCCTCCTTA (sugars e5 d10 e5, PS)”, the target mRNA inhibition stood at 69% (HepG2, 2.5 µM) and 78% (HepG2, 10 µM).
“GGGTTCTTGTCCTGGTCCCA (sugars e5 d10 e5, PS)”: the target mRNA inhibition (HepG2, 2.5 µM) was 79% and 66%; the target mRNA inhibition (HepG2, 10 µM) was 90%.
Sequence “GGTCAGCAGGTTGTGTGTCT (sugars e2 d13 e5, PS)” had a target mRNA inhibition (HepG2, 0.12 µM) of 45%.
“GGTCTGGGAACAGCAGCATC (sugars e5 d10 e5, PS)”: the target mRNA inhibition stood at 59% (HepG2, 2.5 µM) and 79% (HepG2, 10 µM).

The record behind these values is the OligoGym collection.
